Assay results from PubChem BioAssay AID248 (DTP/NCI, 2004).
Toxic doses and inconclusive results are not listed. No stated cut-off is given here; in the data, active means T/C of 150% or more; inactive means T/C below 125%.

Tested on: L1210 leukemia ip in BDF1 mice, survival T/C
Assay: NCI In Vivo Anticancer Drug Screen. Data for tumor model L1210 Leukemia (intraperitoneal) in B6D2F1 (BDF1) mice
Settings: endpoint: mean survival time, higher = longer survival
Summary of the method: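 Ratio derived from survival: compound-dosed mice over vehicle-dosed mice, all bearing a transplantable tumor.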

[1] = dose: 100.0 mg/kg/injection, schedule: Q04DX003 (ip), vehicle: saline with Tween-80
[2] = dose: 200.0 mg/kg/injection, schedule: Q04DX003 (ip), vehicle: saline with Tween-80
[3] = dose: 400.0 mg/kg/injection, schedule: Q04DX003 (ip), vehicle: saline with Tween-80

Measured: T/C

CC[N+]1(CC)CCC(OC(=O)C(O)(c2ccccc2)c2ccccc2)C1 (stereo not given)
inactive: dose: 5.0 mg/kg/injection, schedule: Q01DX001 (ip), vehicle: saline 97 % of control | dose: 10.0 mg/kg/injection, schedule: Q01DX001 (ip), vehicle: saline 92 % of control | dose: 20.0 mg/kg/injection, schedule: Q01DX001 (ip), vehicle: saline 97 % of control | dose: 40.0 mg/kg/injection, schedule: Q01DX001 (ip), vehicle: saline 97 % of control | dose: 80.0 mg/kg/injection, schedule: Q01DX001 (ip), vehicle: saline 103 % of control

NS(=O)(=O)c1ccc(NC(=O)Nc2ccccc2)cc1
inactive: dose: 100.0 mg/kg/injection, schedule: Q01DX009 (ip), vehicle: Klucel (hydroxypropylcellulose) (HPC) 92 % of control | dose: 200.0 mg/kg/injection, schedule: Q01DX009 (ip), vehicle: Klucel (hydroxypropylcellulose) (HPC) 97 % of control

CCCCCCCCCCNC(=O)C[n+]1cccc(C(=O)N(CC)CC)c1
inactive: dose: 6.25 mg/kg/injection, schedule: Q04DX003 (ip), vehicle: saline 94 % of control | dose: 12.5 mg/kg/injection, schedule: Q04DX003 (ip), vehicle: saline 96 % of control | dose: 25.0 mg/kg/injection, schedule: Q04DX003 (ip), vehicle: saline 93 % of control

CCOC(=O)NC(C)(C)CN(C(=O)OCC)c1ccccc1
inactive: [1] 111 % of control | [2] 108 % of control | [3] 106 % of control

Cc1ccc(Nc2ccc(O)c3c2C(=O)c2ccccc2C3=O)c(Br)c1
inactive: dose: 75.0 mg/kg/injection, schedule: Q01DX001 (ip), vehicle: steriod suspending solution 96 % of control | dose: 150.0 mg/kg/injection, schedule: Q01DX001 (ip), vehicle: steriod suspending solution 100 % of control | dose: 300.0 mg/kg/injection, schedule: Q01DX001 (ip), vehicle: steriod suspending solution 93 % of control

COc1ccc(C(C)c2ccc(OC)cc2)cc1
inactive: [1] 93 % of control | [2] 95 % of control | [3] 91 % of control

C/C(=N/NC(=O)c1ccc(N)cc1)c1ccc(C)cc1
inactive: dose: 100.0 mg/kg/injection, schedule: Q04DX002 (ip), vehicle: Klucel (hydroxypropylcellulose) (HPC) 110 % of control | dose: 200.0 mg/kg/injection, schedule: Q04DX002 (ip), vehicle: Klucel (hydroxypropylcellulose) (HPC) 89 % of control

O=C(CSc1cc(Cl)ccc1Cl)Nc1ccc(Cl)cc1Cl
inactive: dose: 100.0 mg/kg/injection, schedule: Q04DX003 (ip), vehicle: carboxymethylcellulose (CMC) 92 % of control | dose: 200.0 mg/kg/injection, schedule: Q04DX003 (ip), vehicle: carboxymethylcellulose (CMC) 95 % of control

CN(C)S(=O)(=O)c1ccc(CCCCCCc2ccc(S(=O)(=O)N(C)C)cc2)cc1
inactive: dose: 100.0 mg/kg/injection, schedule: Q01DX001 (ip), vehicle: carboxymethylcellulose (CMC) 96 % of control | dose: 200.0 mg/kg/injection, schedule: Q01DX001 (ip), vehicle: carboxymethylcellulose (CMC) 102 % of control | dose: 400.0 mg/kg/injection, schedule: Q01DX001 (ip), vehicle: carboxymethylcellulose (CMC) 91 % of control

Cc1ccc([Si](C)Cl)cc1
inactive: [1] 98 % of control | [2] 94 % of control | [3] 90 % of control

C/C(=N\N=C(/C)c1ccc([N+](=O)[O-])cc1)c1ccc([N+](=O)[O-])cc1
inactive: dose: 100.0 mg/kg/injection, schedule: Q04DX002 (ip), vehicle: saline with Tween-80 98 % of control | dose: 200.0 mg/kg/injection, schedule: Q04DX002 (ip), vehicle: saline with Tween-80 103 % of control | dose: 400.0 mg/kg/injection, schedule: Q04DX002 (ip), vehicle: saline with Tween-80 103 % of control

CCOC(=O)C(CCP(=O)(OCC)OCC)P(=O)(OCC)OCC (stereo not given)
inactive: dose: 12.5 mg/kg/injection, schedule: Q04DX002 (ip), vehicle: saline 99 % of control | dose: 25.0 mg/kg/injection, schedule: Q04DX002 (ip), vehicle: saline 96 % of control | dose: 50.0 mg/kg/injection, schedule: Q04DX002 (ip), vehicle: saline 115 % of control | dose: 100.0 mg/kg/injection, schedule: Q01DX001 (ip), vehicle: saline 101 % of control | dose: 200.0 mg/kg/injection, schedule: Q01DX001 (ip), vehicle: saline 95 % of control | dose: 400.0 mg/kg/injection, schedule: Q01DX001 (ip), vehicle: saline 98 % of control

Cc1ccc(S(=O)(=O)OCC2(COS(=O)(=O)c3ccc(C)cc3)CCC2(COS(=O)(=O)c2ccc(C)cc2)COS(=O)(=O)c2ccc(C)cc2)cc1
inactive: dose: 50.0 mg/kg/injection, schedule: Q01DX009 (ip), vehicle: saline 97 % of control | dose: 75.0 mg/kg/injection, schedule: Q01DX001 (ip), vehicle: saline 93 % of control | dose: 100.0 mg/kg/injection, schedule: Q01DX009 (ip), vehicle: saline 89 % of control | dose: 150.0 mg/kg/injection, schedule: Q01DX001 (ip), vehicle: saline 96 % of control | dose: 200.0 mg/kg/injection, schedule: Q01DX009 (ip), vehicle: saline 89 % of control | dose: 300.0 mg/kg/injection, schedule: Q01DX001 (ip), vehicle: saline 93 % of control

CC12CCC(O)(CC1)CC2(O)c1ccccc1 (stereo not given)
inactive: dose: 100.0 mg/kg/injection, schedule: Q04DX002 (ip), vehicle: saline 102 % of control | dose: 200.0 mg/kg/injection, schedule: Q04DX002 (ip), vehicle: saline 95 % of control | dose: 400.0 mg/kg/injection, schedule: Q04DX002 (ip), vehicle: saline 98 % of control

C[N+](C)(C)C1(Cc2ccc(F)cc2)c2ccccc2-c2ccccc21
inactive: dose: 6.25 mg/kg/injection, schedule: Q01DX009 (ip), vehicle: saline with Tween-80 88 % of control | dose: 6.25 mg/kg/injection, schedule: Q04DX002 (ip), vehicle: saline with Tween-80 98 % of control | dose: 6.25 mg/kg/injection, schedule: Q04DX003 (ip), vehicle: saline with Tween-80 90 % of control | dose: 12.5 mg/kg/injection, schedule: Q04DX002 (ip), vehicle: saline with Tween-80 115 % of control | dose: 12.5 mg/kg/injection, schedule: Q04DX003 (ip), vehicle: saline with Tween-80 90 % of control | dose: 25.0 mg/kg/injection, schedule: Q01DX009 (ip), vehicle: saline with Tween-80 88 % of control | dose: 25.0 mg/kg/injection, schedule: Q04DX002 (ip), vehicle: saline with Tween-80 98 % of control | dose: 25.0 mg/kg/injection, schedule: Q04DX003 (ip), vehicle: saline with Tween-80 90 % of control
